According to patent US10287301B2 (Achillion Pharmaceuticals, Inc., priority 2015, dated 2019):
pIC50: −log10 of the molar value.

These compounds were tested against Human Factor D (Homo sapiens (Human), UniProt P00746) (assay: Human Factor D Assay). Settings: not given.
Assay type: biochemical
Method in brief: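 Thioesterase activity monitored with Z-L-Lys-SBzl plus Ellman's reagent (DTNB), each 100 μM final, after 5 min room-temperature compound preincubation of 80 nM human serum Factor D in pH 7.5 Tris (50 mM)/1M NaCl.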

Chain of Human Factor D (P00746 26-253): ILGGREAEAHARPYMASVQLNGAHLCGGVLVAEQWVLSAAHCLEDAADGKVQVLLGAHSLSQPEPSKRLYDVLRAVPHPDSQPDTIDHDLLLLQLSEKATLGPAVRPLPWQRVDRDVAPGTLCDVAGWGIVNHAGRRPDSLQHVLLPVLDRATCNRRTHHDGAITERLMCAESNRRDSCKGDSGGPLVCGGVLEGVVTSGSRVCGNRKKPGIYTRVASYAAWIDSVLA

Row | pIC50 | Structure (SMILES)
1 | 5.00 to 6.00 | CC(=O)c1nn(CC(=O)N2C[C@H](F)C[C@H]2C(=O)NC2CCN(C(=O)c3cn[nH]c3)CC2)c2ccc(-c3cnc(C)nc3)cc12 [Compound 261, (2S,4R)-N-(1-(1H-pyrazole-4-carbonyl)piperidin-4-yl)-1-(2-(3-acetyl-5-(2-methylpyrimidin-5-yl)-1H-indazol-1-yl)acetyl)-4-fluoropyrrolidine-2-carboxamide]

Same assay, conditions: Human Factor D assay of Example 8; Table 2; read-out: IC50

Row | Structure (SMILES) | pIC50
2 | CC(=O)c1nn(CC(=O)N2C[C@@H](O)C[C@H]2C(=O)Nc2cccc(Br)n2)c2ccc(-c3cnc(C)nc3)cc12 [Compound 249, (2S,4S)-1-(2-(3-Acetyl-5-(2-methylpyrimidin-5-yl)-1H-indazol-1-yl)acetyl)-N-(6-bromopyridin-2-yl)-4-hydroxypyrrolidine-2-carboxamide] | > 6.00
3 | CC(=O)c1nn(CC(=O)N2CC(=O)C[C@H]2C(=O)Nc2cccc(Br)n2)c2ccc(-c3cnc(C)nc3)cc12 [Compound 250, (S)-1-(2-(3-Acetyl-5-(2-methylpyrimidin-5-yl)-1H-indazol-1-yl)acetyl)-N-(6-bromopyridin-2-yl)-4-oxopyrrolidine-2-carboxamide] | > 6.00
4 | NC(=O)c1nn(CC(=O)N2C[C@H](F)C[C@H]2C(=O)Nc2cccc(Br)n2)c2ccc(-c3[nH]nnc3-c3cncnc3)cc12 [Compound 251, 1-(2-((2S,4R)-2-(6-bromopyridin-2-ylcarbamoyl)-4-fluoropyrrolidin-1-yl)-2-oxoethyl)-5-(4-(pyrimidin-5-yl)-1H-1,2,3-triazol-5-yl)-1H-indazole-3-carboxamide] | > 6.00
5 | COCCN(C)CCN1CC(NC(=O)[C@@H]2C[C@@H](F)CN2C(=O)Cn2nc(C(C)=O)c3cc(-c4cnc(C)nc4)ccc32)CC1=O (stereo partly drawn) [Compound 254, (2S,4R)-1-(2-(3-acetyl-5-(2-methylpyrimidin-5-yl)-1H-indazol-1-yl)acetyl)-4-fluoro-N-(1-(2-((2-methoxyethyl)(methyl)amino)ethyl)-5-oxopyrrolidin-3-yl)pyrrolidine-2-carboxamide] | < 5.00
6 | CC(=O)c1nn(CC(=O)N2CC(F)(F)C[C@H]2C(=O)Nc2cccc(Br)n2)c2ccc(-c3cnc(C)nc3)cc12 [Compound 255, (S)-1-(2-(3-acetyl-5-(2-methylpyrimidin-5-yl)-1H-indazol-1-yl)acetyl)-N-(6-bromopyridin-2-yl)-4,4-difluoropyrrolidine-2-carboxamide] | > 6.00
7 | CC(=O)c1nn(CC(=O)N2C[C@H](F)C[C@H]2C(=O)Nc2cccc(OC(F)(F)F)c2F)c2ccc(-c3cnc4cc(C)nn4c3)cc12 [Compound 256, (2S,4R)-1-(2-(3-acetyl-5-(2-methylpyrazolo[1,5-a]pyrimidin-6-yl)-1H-indazol-1-yl)acetyl)-4-fluoro-N-(2-fluoro-3-(trifluoromethoxy)phenyl)pyrrolidine-2-carboxamide] | > 6.00
8 | CC(=O)c1nn(CC(=O)N2[C@@H]3C[C@@H]3C[C@H]2C(=O)Nc2cccc(Br)n2)c2ccc(-c3cnc4cc(C)nn4c3)cc12 [Compound 257, (1R,3S,5R)-2-(2-(3-acetyl-5-(2-methylpyrazolo[1,5-a]pyrimidin-6-yl)-1H-indazol-1-yl)acetyl)-N-(6-bromopyridin-2-yl)-2-azabicyclo[3.1.0] hexane-3-carboxamide] | > 6.00
9 | CC(=O)c1nn(CC(=O)N2C[C@H](F)C[C@H]2C(=O)Nc2nc(Cl)cs2)c2ccc(-c3cnc(C)nc3)cc12 [Compound 258, (2S,4R)-1-(2-(3-acetyl-5-(2-methylpyrimidin-5-yl)-1H-indazol-1-yl)acetyl)-N-(4-chlorothiazol-2-yl)-4-fluoropyrrolidine-2-carboxamide] | > 6.00
10 | CC(=O)c1nn(CC(=O)N2C[C@H](F)C[C@H]2C(=O)Nc2cccc(Br)n2)c2ccc(-c3cnc(C4CC4)nc3)cc12 [Compound 259] | > 6.00
11 | CC(=O)c1nn(CC(=O)N2C[C@H](F)C[C@H]2C(=O)Nc2cccc(Br)n2)c2ccc(-c3cnc(N)nc3)cc12 [Compound 260, (2S,4R)-1-(2-(3-acetyl-5-(2-aminopyrimidin-5-yl)-1H-indazol-1-yl)acetyl)-N-(6-bromopyridin-2-yl)-4-fluoropyrrolidine-2-carboxamide] | > 6.00
